Source: EP0726257A1, “1-(Hetero)Arylvinyl-5H-2,3-benzodiazepine derivatives useful for the treatment of central nervous system disorders, and benzopyrylium intermediates for their preparation” (EGIS GYOGYSZERGYAR RT., priority 1995, dated 1996)
Read-outs that look alike come from different tables or passages of the source.

What was measured:
rats [1] = assay: Lick-conflict test (Vogel et al.), anxiolytic activity; type: in vivo; settings: Rattus norvegicus, po, read-out: Minimal effective dose [MED] Lick conflict
Source text: (§1) The anxiolytic activity was studied in rats according to the "lick-conflict" test elaborated by Vogel et al. (Psychopharmacology, 21, 1, [1971] and the elevated plus-maze test described by Pellow (Pellow, J.: Neurosci. Meth. 14, 149, [1985]). The antiaggressive effect was investigated in mice using the "fighting behaviour" method of Tedeschi (J. Pharm. Exp. Ther., 125, 28, [1959]). The minimal effective dose (MED) values and the ED50 values obtained are shown in the following Table V.

mice [2] = assay: Acute toxicity (dead/treated animals) in the Irwin test; type: in vivo
Procedure: (§2) The behavioural effects of 1-[2'-(substituted) vinyl]-5H-2,3-benzodiazepine derivatives according to the invention and of reference substances were measured according to the method of Irwin (Psychopharmacology, 13, 222 [1968]). The results and the acute toxicity data (dead/treated animals, shown in brackets) can be seen in the following Table II
(§3) From the above Table II it can be taken that the 1-[2'-(substituted) vinyl]-5H-2,3-benzodiazepine derivatives according to the invention considerably decrease the spontaneous motor activity (SMA) in mice after intraperitoneal or oral administration.

[3] = biological target: homophthalazine binding site; assay: Displacement of 3H-girisopam from the homophthalazine binding site in rat brain striatal membrane preparation; settings: displacing 5 nM 3H-girisopam
Procedure: Ki values were calculated according to the following equation: Ki = IC50 :(1 +([L])/(KD)), [formula] wherein KD is the dissociation constant of the labelled ligand-receptor complex, [L] is the concentration of the labelled ligand and IC50 is the half maximal inhibitory concentration of the test compound.

Catalepsy in mice = assay: Cataleptic effect in mice (Schlichtegroll); type: in vivo; settings: p.o.
Procedure: (§4) The cataleptic effect of the compounds was measured both in mice (Schlichtegroll: Arzneim. Forsch., 8, 489, [1958]) and in rats (Morpurgo: Arch. Int. Pharmacodyn., 137, 87, [1962]).

Catalepsy in rats = assay: Cataleptic effect in rats (Morpurgo); type: in vivo; settings: p.o.
Procedure: as §4

[4] = tested on: spontaneous motor activity (SMA) in mice; assay: Behavioural effects according to Irwin (decrease in spontaneous motor activity); type: in vivo; set-up: key: ++ strong; + moderate; +- slight decrease in spon-taneous motor activity [SMA]
Procedure: as §2, §3

[5] = tested on: "climbing" reaction induced by 5,6,6a,7-tetra-(hydro)-6-(methyl)-4H-dibenzo[de,g]quinoline-10,11-di-(ol){apomorphine}; assay: Inhibition of apomorphine-induced climbing according to Puech et al.; type: in vivo
Procedure: (§5) The potential antipsychotic activity of 1-[2'-(substituted) vinyl]-5H-2,3-benzodiazepine derivatives according to the invention and of reference substances was tested according to the method of Puech et al. (Psychopharmacology, 75, 84, [1981] by measuring their inhibiting effect on the "climbing" reaction induced by 5,6,6a,7-tetra-(hydro)-6-(methyl)-4H-dibenzo[de,g]quinoline-10,11-di-(ol){apomorphine}. The results have been expressed as ED50 values. Since the inhibition of the spontaneous motor activity (SMA) is an important characteristic of the antipsychotic drugs, the ED50 values of a number of compounds were determined according to the method of Borsy et al. (Arch. Int. Pharmacodyn., 124, 1, 196).

[6] = tested on: spontaneous motor activity of mice; assay: Inhibition of spontaneous motor activity according to Borsy et al.; type: in vivo
Procedure: as §5
The effect of the 1-[2'-(substituted) vinyl]-5H-2,3-benzodiazepine derivatives according to the invention on the spontaneous motor activity was tested according to the method of Borsy et al. Groups consisting of 3 mice were treated orally with different doses of the compounds to be tested. Then the animals were placed into a 10-channel Dews system equipment, wherein the number of interruptions of infrared beam within 30 minutes was counted. […]

mice [7] = assay: Fighting behaviour method of Tedeschi, antiaggressive effect; type: in vivo; settings: Mus musculus, po, read-out: ED50 Fighting behaviour
Source text: as §1

rats [8] = assay: Elevated plus-maze test (Pellow), anxiolytic activity; type: in vivo; settings: Rattus norvegicus, ip, read-out: Minimal effective dose [MED] Elevated + Maze
Source text: as §1
The anxiolytic activity of these compounds was investigated in the elevated plus maze test. Male rats belonging to the Sprague Dawley strain and weighing 220 to 260 g were used as test animals. The test was carried out with the aid of a wooden plus-shaped maze elevated to a height of 50 cm and containing two enclosed and two open arms (50 cm long and 15 cm wide). After 60 minutes pretreatment the animals were placed into the maze and observed for 5 minutes. The drug effect was expressed as percent increase of the time spent on the open arms and number of open arm entries. The minimum effective dose (MED) which caused a significant increase of the time spent on the open arms was calculated for every substance [Pelow, S., Chopin, P., File, S.E., Briley, M.: J. Neurosci. Methods 14, 149 to 167 [1985]).

[9] = tested on: convulsions caused by 6,7,8,9-tetrahydro-5H-tetrazoloazepine [pentetrazole]; assay: Inhibition of pentetrazole-induced convulsions (modified method of Benziger and Hane); type: in vivo; settings: Mus musculus, po, mice, read-out: ID50 (the source's name)
Procedure: The inhibiting effect against convulsions caused by 6,7,8,9-tetrahydro-5H-tetrazoloazepine [pentetrazole] was defined by the modified method of Benziger and Hane. Groups of male and female mice belonging to the NMRI strain and weighing 20 to 25 g were used. The tonic extensor convulsions of the hind limbs caused by intraperitoneally administered 125 mg/kg of 6,7,8,9-tetrahydro-5H-tetrazoloazepine [pentetrazole] were registered on the animals of groups consisting of 6 to 12 animals. The test compounds and the carrier were administered 1 hour before administering the 6,7,8,9-tetrahydro-5H-tetrazoloazepine [pentetrazole] (Benziger, R., Hane, D.: Arch. Int. Pharmacodyn. 167, 245 [1967]).

[10] = Cataleptic effect in mice (Schlichtegroll); type: in vivo; settings: mouse, in vivo, Tables III and IV compared, read-out: dose causing catalepsy on mice relative to the spontaneous motor activity (SMA) decreasing ED50 dose
Procedure: as §4

[11] = po, read-out: {apomorphine} Climbing ED50
[12] = Mus musculus, po, read-out: Spontaneous motor activity SMA ED50
[13] = po; read-out: {apomorphine} Climbing ED50
[14] = Mus musculus, po; read-out: Spontaneous motor activity SMA ED50

| Structure (SMILES) | minimal effective dose (rats [1]; rats) [mg/kg] | acute toxicity (dead/treated animals) (mice [2]; 300 mg/kg i.p.) | acute toxicity (dead/treated animals) (mice [2]; 1000 mg/kg p.o.) | Ki [3] [nM] | Catalepsy in mice Minimal effective dose [MED] (Catalepsy in mice) [mg/kg] | Catalepsy in rats Minimal effective dose [MED] (Catalepsy in rats) [mg/kg] | Behaviour ([4]; 300 mg/kg i.p.) | Behaviour ([4]; 1000 mg/kg p.o.) | ED50 [5, 13] [mg/kg] | also measured |
| --- | --- | --- | --- | --- | --- | --- | --- | --- | --- | --- |
| COc1cc2c(cc1OC)C(C=Cc1cccs1)=NN=C(C)C2 [Example 70] | 0.3 | 2/6 | 0/6 | 13 | >100 | >100 | + + | + |  |  |
| COc1cc2c(cc1OC)C(c1cccc(Cl)c1)=NN=C(C)C2 [girisopam, 1-(3'-〈chloro〉-phenyl)-4-(methyl)-7,8-di-(methoxy)-5H-2,3-benzodiazepine, reference compound] |  | 0/6 |  | 40 |  |  | +- |  |  | minimal effective dose (rats [1]): 10 mg/kg; ED50 [5, 11]: 12 mg/kg; ED50 [6, 12]: 10 mg/kg; ED50 (mice [7]): 7.7 mg/kg; minimal effective dose (rats [8]): 12.5 mg/kg |
| NC(=O)N1c2ccccc2C=Cc2ccccc21 [carbamazepine, 5H-dibenz[b,f]azepine-5-carboxamide] |  |  |  |  |  |  |  |  |  | ED50 [9]: 7.1 mg/kg |
| COc1ccc(C=CC2=NN=C(C)Cc3cc(OC)c(OC)cc32)cc1OC [Example 3, 1-[3',4'-Di-(methoxy)-styryl]-4-[methyl]-7,8-di-[methoxy]-5H-2,3-benzodiazepine] | 0.1 | 5/6 | 5/6 | 11 | 100 | >100 | + + | + + | 6.7 | ED50 [6, 14]: 8.2 mg/kg |
| COc1cc2c(cc1OC)C(C=Cc1ccc(NC(C)=O)cc1)=NN=C(C)C2 [Example 84, 1-[4'-(Acetylamino)-styryl]-4-[methyl]-7,8-di-[methoxy]-5H-2,3-benzodiazepine] |  | 0/5 | 1/5 | 5 |  |  | + + | + + | 11 |  |
| COc1cc2c(cc1OC)C(C=Cc1ccc(N)cc1)=NN=C(C)C2 [Example 73, 1-[4'-(Amino)-styryl]-4-[methyl]-7,8-di-[methoxy]-5H-2,3-benzodiazepine] |  |  |  | 11 |  |  |  |  | 1.8 | ED50 (mice [7]; mice): 6.4 mg/kg; minimal effective dose (rats [8]; rats): 2.5 mg/kg |
| CNC1=Nc2ccc(Cl)cc2C(c2ccccc2)=[N+]([O-])C1 [chlorodiazepoxide, 7-(chloro)-2-(methylamino)-5-(phenyl)-3H-1,4-benzodiazepine-4-(oxide), reference compound] |  |  |  |  |  |  |  |  |  | minimal effective dose (rats [1]): 5 mg/kg; {apomorphine} Climbing ED50 ([5]; p.o.): inactive; ED50 [6, 12]: 56 mg/kg; ED50 (mice [7]): 9.2 mg/kg; minimal effective dose (rats [8]): 2.5 mg/kg |
| COc1cc2c(cc1OC)C(C=Cc1ccccc1F)=NN=C(C)C2 [Example 10] | 3 | 0/6 | 0/6 | 9 | >100 | >100 | + | + |  |  |
| COc1ccc(C=CC2=NN=C(C)Cc3cc(OC)c(OC)cc32)c(OC)c1 [Example 5, 1-[2',4'-Di-(methoxy)-styryl)-4-[methyl]-7,8-di-[methoxy]-5H-2,3-benzodiazepine] |  | 0/5 | 0/5 | 18 |  |  | + + | + + |  | ED50 (mice [7]; mice): 15 mg/kg; minimal effective dose (rats [8]; rats): 1.25 mg/kg |
| CN(C)CCCN1c2ccccc2Sc2ccc(Cl)cc21 [chlorpromazine, 2-(chloro)-10-(3'-〈dimethylamino〉-propyl)-phenothiazine, reference compound] |  |  |  |  | 10 | 20 |  |  |  | ED50 [5, 11]: 1.1 mg/kg; ED50 [6, 12]: 2 mg/kg; selectivity ratio [10]: 5 |
| COc1cc2c(cc1OC)C(C=Cc1ccc(N(C)C)cc1)=NN=C(C)C2 [Example 4, 1-[4'-(Dimethylamino)-styryl)-4-[methyl]-7,8-di-[methoxy]-5H-2,3-benzodiazepine] | 0.3 | 1/5 | 1/5 | 11 | >100 | >100 | + + | + + | 9.1 | ED50 [6, 14]: 4.1 mg/kg; ED50 (mice [7]; mice): 7.4 mg/kg; minimal effective dose (rats [8]; rats): 5 mg/kg |
| COc1cc2c(cc1OC)C(C=Cc1ccc(C#N)cc1)=NN=C(C)C2 [Example 57] | 1 |  |  | 18 | >100 | >100 |  |  |  |  |
| COc1cc2c(cc1OC)C(c1ccc(N)cc1)=NN=C(C)C2 [nerisopam, 1-(4'-〈amino〉-phenyl)-4-(methyl)-7,8-di-(methoxy)-5H-2,3-benzodiazepine, reference compound] |  | 5/6 |  |  | 40 | 60 | + + |  |  | minimal effective dose (rats [1]): 0.3 mg/kg; ED50 [5, 11]: 0.9 mg/kg; ED50 [6, 12]: 2.5 mg/kg; ED50 (mice [7]): 4 mg/kg; minimal effective dose (rats [8]): 0.3 mg/kg |
| COc1cc2c(cc1OC)C(C=Cc1cc(OC)c(OC)c(OC)c1)=NN=C(C)C2 [Example 6] | 1 | 0/6 | 0/6 | 11 | >100 | >100 | + | + | 15 | ED50 [6, 14]: 9.3 mg/kg |
